Columns and labels:
[1] = target: T1, PhZ (Phanerodontia chrysosporium, UniProt A0A1B2TT73, L124M); assay: competition with [3H]-hypoxanthine uptake in germinating A. nidulans conidia; type: cell-based; settings: 0.2 uM [3H]-hypoxanthine, 37 °C
T1 construct: full length, 578 amino acids, from cDNA; C-terminal GFP fusion kept; expressed at the azgA locus of Aspergillus nidulans deltaZAC (azgA, uapA, uapC deleted)

[2] = target: T2, PhZ (Phanerodontia chrysosporium, UniProt A0A1B2TT73, A418V); assay: as above; type: cell-based; settings: 0.2 uM [3H]-hypoxanthine, 37 °C
T2 construct: full length, 578 amino acids, from cDNA; C-terminal GFP fusion kept; expressed at the azgA locus of Aspergillus nidulans deltaZAC (azgA, uapA, uapC deleted)

[3] = substrate: O=c1[nH]cnc2nc[nH]c12; assay: inhibition of [3H]-hypoxanthine uptake by unlabelled hypoxanthine in germinating A. nidulans conidia; type: cell-based, Phanerodontia chrysosporium; settings: 0.2 uM [3H]-hypoxanthine, 37 °C, minimal medium with nitrate, Km/i taken as equal to IC50 of unlabelled hypoxanthine
[4] = substrate: O=c1[nH]cnc2nc[nH]c12; assay: as above; type: cell-based, Phanerodontia chrysosporium; settings: 0.2 uM [3H]-hypoxanthine, 37 °C, minimal medium with nitrate, Km/i taken as equal to IC50 of unlabelled hypoxanthine; remark: listed apart in the source
Source text: inhibition of [3H]-hypoxanthine uptake by unlabelled hypoxanthine in germinating A. nidulans conidia on PhZ | (A) PhZwt; (B-E) L124M, S133T, T392A and A418V mutants respectively.

[5] = substrate: O=c1[nH]cnc2nc[nH]c12; assay: as above; type: cell-based, Phanerodontia chrysosporium; settings: 0.2 uM [3H]-hypoxanthine, 37 °C, minimal medium with nitrate, Km/i taken as equal to IC50 of unlabelled hypoxanthine; remark: listed apart in the source
Source text: inhibition of [3H]-hypoxanthine uptake by unlabelled hypoxanthine in germinating A. nidulans conidia on PhZ | Dose-response curves for hypoxanthine are shown.

Molecule | % of initial uptake velocity with 1 mM competitor [1] | % of initial uptake velocity with 1 mM competitor [2] | Km [4] [µM] | also measured
Nc1nc2[nH]nnc2c(=O)[nH]1 [8-azaguanine] | L124M and S133T, show less [^3H]-hypoxanthine inhibition regarding PhZwt with all purines | the T392A and A418V mutants exhibited higher levels of inhibition |  | 
Nc1ncnc2[nH]cnc12 [adenine] | L124M and S133T, show less [^3H]-hypoxanthine inhibition regarding PhZwt with all purines | the T392A and A418V mutants exhibited higher levels of inhibition |  | 
Nc1nc2[nH]cnc2c(=O)[nH]1 [guanine] | L124M and S133T, show less [^3H]-hypoxanthine inhibition regarding PhZwt with all purines | the T392A and A418V mutants exhibited higher levels of inhibition |  | 
PhZ (Phanerodontia chrysosporium; L124M) (protein, full length, 578 amino acids, from cDNA; C-terminal GFP fusion kept; expressed at the azgA locus of Aspergillus nidulans deltaZAC (azgA, uapA, uapC deleted)) MPIALTHRINAFVADSPVGRWFHLEGSGHPKERVGSRFLTELRAGLTTWAAMAYIISVNASIISDTGGTCVCTQPDLCVNDETYLSCVADVRRDLITSTAAVSALASFLMGLLANLPVGMAPGMGLNAYFTYSVVGFHGSGIITYREALAAVFLEGWFFFFLSLLGLRQWLARIMPQSLVMAVGAGIGLFIAFIGLSGGGLGVIGGDTTNLVGLGGCLPQYYTSPDLPNYCASHVLQSPTMWLGIFVGGVFTVFLMLYRVKGAILIGIFLTSIISWPRPTSVTYFPHTDTGDQAFDFFKQVVTFRPLKRIGNALDYNYSNGRVWYALITFLYVDILDTTGTLYSMAKFAGLRDPVTLDFENSTIAYCVDAFSISMGALMGTSPVTAFIESATGISEGGKTGLTAITTGFAFFISVFFAPIFASIPSWATGGALVIVGSLMIRNVRDINWDYVGDSVPAFLTLIIIPLTYNIAYGVIAGIISFVLINGLAWALRKVSGERFAPPNYDASEPWVIPPGSIVPAWMRFIAGRTGLARDAARERPADADVLEMEQHAHDAASASSLGKHVPAVAEPVTEKDD |  |  |  | Km [3]: 1.6 ± 0.3 µM
PhZ (Phanerodontia chrysosporium; A418V) (protein, full length, 578 amino acids, from cDNA; C-terminal GFP fusion kept; expressed at the azgA locus of Aspergillus nidulans deltaZAC (azgA, uapA, uapC deleted)) MPIALTHRINAFVADSPVGRWFHLEGSGHPKERVGSRFLTELRAGLTTWAAMAYIISVNASIISDTGGTCVCTQPDLCVNDETYLSCVADVRRDLITSTAAVSALASFLMGLLANLPVGMAPGLGLNAYFTYSVVGFHGSGIITYREALAAVFLEGWFFFFLSLLGLRQWLARIMPQSLVMAVGAGIGLFIAFIGLSGGGLGVIGGDTTNLVGLGGCLPQYYTSPDLPNYCASHVLQSPTMWLGIFVGGVFTVFLMLYRVKGAILIGIFLTSIISWPRPTSVTYFPHTDTGDQAFDFFKQVVTFRPLKRIGNALDYNYSNGRVWYALITFLYVDILDTTGTLYSMAKFAGLRDPVTLDFENSTIAYCVDAFSISMGALMGTSPVTAFIESATGISEGGKTGLTAITTGFAFFISVFFVPIFASIPSWATGGALVIVGSLMIRNVRDINWDYVGDSVPAFLTLIIIPLTYNIAYGVIAGIISFVLINGLAWALRKVSGERFAPPNYDASEPWVIPPGSIVPAWMRFIAGRTGLARDAARERPADADVLEMEQHAHDAASASSLGKHVPAVAEPVTEKDD |  |  | 2.8 ± 0.4 | 
PhZ (Phanerodontia chrysosporium; S133T) (protein, full length, 578 amino acids, from cDNA; C-terminal GFP fusion kept; expressed at the azgA locus of Aspergillus nidulans deltaZAC (azgA, uapA, uapC deleted)) MPIALTHRINAFVADSPVGRWFHLEGSGHPKERVGSRFLTELRAGLTTWAAMAYIISVNASIISDTGGTCVCTQPDLCVNDETYLSCVADVRRDLITSTAAVSALASFLMGLLANLPVGMAPGLGLNAYFTYTVVGFHGSGIITYREALAAVFLEGWFFFFLSLLGLRQWLARIMPQSLVMAVGAGIGLFIAFIGLSGGGLGVIGGDTTNLVGLGGCLPQYYTSPDLPNYCASHVLQSPTMWLGIFVGGVFTVFLMLYRVKGAILIGIFLTSIISWPRPTSVTYFPHTDTGDQAFDFFKQVVTFRPLKRIGNALDYNYSNGRVWYALITFLYVDILDTTGTLYSMAKFAGLRDPVTLDFENSTIAYCVDAFSISMGALMGTSPVTAFIESATGISEGGKTGLTAITTGFAFFISVFFAPIFASIPSWATGGALVIVGSLMIRNVRDINWDYVGDSVPAFLTLIIIPLTYNIAYGVIAGIISFVLINGLAWALRKVSGERFAPPNYDASEPWVIPPGSIVPAWMRFIAGRTGLARDAARERPADADVLEMEQHAHDAASASSLGKHVPAVAEPVTEKDD |  |  | 2.1 ± 0.4 | 
PhZ (Phanerodontia chrysosporium) (protein, full length, 578 amino acids, from cDNA; C-terminal GFP fusion kept; expressed at the azgA locus of Aspergillus nidulans deltaZAC (azgA, uapA, uapC deleted)) MPIALTHRINAFVADSPVGRWFHLEGSGHPKERVGSRFLTELRAGLTTWAAMAYIISVNASIISDTGGTCVCTQPDLCVNDETYLSCVADVRRDLITSTAAVSALASFLMGLLANLPVGMAPGLGLNAYFTYSVVGFHGSGIITYREALAAVFLEGWFFFFLSLLGLRQWLARIMPQSLVMAVGAGIGLFIAFIGLSGGGLGVIGGDTTNLVGLGGCLPQYYTSPDLPNYCASHVLQSPTMWLGIFVGGVFTVFLMLYRVKGAILIGIFLTSIISWPRPTSVTYFPHTDTGDQAFDFFKQVVTFRPLKRIGNALDYNYSNGRVWYALITFLYVDILDTTGTLYSMAKFAGLRDPVTLDFENSTIAYCVDAFSISMGALMGTSPVTAFIESATGISEGGKTGLTAITTGFAFFISVFFAPIFASIPSWATGGALVIVGSLMIRNVRDINWDYVGDSVPAFLTLIIIPLTYNIAYGVIAGIISFVLINGLAWALRKVSGERFAPPNYDASEPWVIPPGSIVPAWMRFIAGRTGLARDAARERPADADVLEMEQHAHDAASASSLGKHVPAVAEPVTEKDD |  |  |  | Km [5]: 2.7 ± 0.2 µM
PhZ (Phanerodontia chrysosporium; T392A) (protein, full length, 578 amino acids, from cDNA; C-terminal GFP fusion kept; expressed at the azgA locus of Aspergillus nidulans deltaZAC (azgA, uapA, uapC deleted)) MPIALTHRINAFVADSPVGRWFHLEGSGHPKERVGSRFLTELRAGLTTWAAMAYIISVNASIISDTGGTCVCTQPDLCVNDETYLSCVADVRRDLITSTAAVSALASFLMGLLANLPVGMAPGLGLNAYFTYSVVGFHGSGIITYREALAAVFLEGWFFFFLSLLGLRQWLARIMPQSLVMAVGAGIGLFIAFIGLSGGGLGVIGGDTTNLVGLGGCLPQYYTSPDLPNYCASHVLQSPTMWLGIFVGGVFTVFLMLYRVKGAILIGIFLTSIISWPRPTSVTYFPHTDTGDQAFDFFKQVVTFRPLKRIGNALDYNYSNGRVWYALITFLYVDILDTTGTLYSMAKFAGLRDPVTLDFENSTIAYCVDAFSISMGALMGTSPVTAFIESAAGISEGGKTGLTAITTGFAFFISVFFAPIFASIPSWATGGALVIVGSLMIRNVRDINWDYVGDSVPAFLTLIIIPLTYNIAYGVIAGIISFVLINGLAWALRKVSGERFAPPNYDASEPWVIPPGSIVPAWMRFIAGRTGLARDAARERPADADVLEMEQHAHDAASASSLGKHVPAVAEPVTEKDD |  |  | 2.3 ± 0.3 | 

From publication PMC11527162, “Mutational analysis of Phanerochaete chrysosporium´s purine transporter” (PLOS ONE, 2024)
